From publication PMC9954146, “Anti-Leukaemic Activity of Rilpivirine Is Mediated by Aurora A Kinase Inhibition” (Cancers, 2023)

Assays:
Assay in all cases: Kinase panel
Type in all cases: biochemical
Details in all cases: read-out: % Residual Activity
[1] = molecular target: T1, ALK(h) (Homo sapiens, UniProt Q9UM73)
T1 construct: purchased Eurofins (KinaseProfiler)
Method in brief: (§1)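 Radiometric kinase assay, ATP at Km for each enzyme; IC50 → Ki via Cheng–Prusoff. Part of a kinome-wide selectivity screen of rilpivirine.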

[2] = molecular target: T2, ATM(h) (Homo sapiens, UniProt Q13315)
T2 construct: purchased Eurofins (KinaseProfiler)
Method in brief: as §1

[3] = molecular target: T3, Aurora-C(h) (Homo sapiens, UniProt Q9UQB9)
T3 construct: purchased Eurofins (KinaseProfiler)
T3 sequence (Q9UQB9 whole entry): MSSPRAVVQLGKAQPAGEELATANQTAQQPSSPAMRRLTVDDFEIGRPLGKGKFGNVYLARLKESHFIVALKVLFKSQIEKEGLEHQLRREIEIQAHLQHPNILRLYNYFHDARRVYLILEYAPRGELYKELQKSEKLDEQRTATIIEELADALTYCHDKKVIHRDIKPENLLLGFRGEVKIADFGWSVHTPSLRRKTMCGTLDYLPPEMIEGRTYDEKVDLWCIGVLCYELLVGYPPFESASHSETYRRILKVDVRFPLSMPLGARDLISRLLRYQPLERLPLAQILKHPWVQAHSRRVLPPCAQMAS
Method in brief: as §1

[4] = molecular target: T4, BrSK1(h) (Homo sapiens, UniProt Q8TDC3)
T4 construct: purchased Eurofins (KinaseProfiler)
T4 sequence (Q8TDC3 whole entry): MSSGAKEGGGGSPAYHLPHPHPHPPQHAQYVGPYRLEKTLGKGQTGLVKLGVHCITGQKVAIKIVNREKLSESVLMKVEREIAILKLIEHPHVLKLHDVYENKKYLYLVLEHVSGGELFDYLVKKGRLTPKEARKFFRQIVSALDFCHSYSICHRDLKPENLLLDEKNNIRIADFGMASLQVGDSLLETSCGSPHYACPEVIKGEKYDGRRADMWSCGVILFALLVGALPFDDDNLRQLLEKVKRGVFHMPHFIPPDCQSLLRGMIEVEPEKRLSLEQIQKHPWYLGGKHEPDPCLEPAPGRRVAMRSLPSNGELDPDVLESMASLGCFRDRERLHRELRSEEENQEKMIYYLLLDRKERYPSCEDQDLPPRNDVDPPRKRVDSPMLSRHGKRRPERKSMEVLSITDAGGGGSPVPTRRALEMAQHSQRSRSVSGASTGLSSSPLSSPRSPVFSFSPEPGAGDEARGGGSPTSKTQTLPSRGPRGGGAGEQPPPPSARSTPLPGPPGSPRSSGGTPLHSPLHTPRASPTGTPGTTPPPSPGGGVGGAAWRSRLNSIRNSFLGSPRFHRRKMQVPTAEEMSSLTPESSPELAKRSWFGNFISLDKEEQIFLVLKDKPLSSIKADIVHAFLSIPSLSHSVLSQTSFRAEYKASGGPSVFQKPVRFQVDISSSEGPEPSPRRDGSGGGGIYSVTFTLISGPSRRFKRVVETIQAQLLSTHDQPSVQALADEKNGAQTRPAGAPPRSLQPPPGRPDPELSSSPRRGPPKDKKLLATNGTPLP
Method in brief: as §1

[5] = molecular target: T5, CHK1(h) (Homo sapiens, UniProt O14757)
T5 construct: purchased Eurofins (KinaseProfiler)
Method in brief: as §1

[6] = molecular target: T6, CK2α1(h) (Homo sapiens, UniProt P68400)
T6 construct: purchased Eurofins (KinaseProfiler)
Method in brief: as §1

[7] = molecular target: T7, CLK3(h) (Homo sapiens, UniProt P49761)
T7 construct: purchased Eurofins (KinaseProfiler)
Method in brief: as §1

[8] = molecular target: T8, CaMKK2(h) (Homo sapiens, UniProt Q96RR4)
T8 construct: purchased Eurofins (KinaseProfiler)
Method in brief: as §1

[9] = molecular target: T9, DCAMKL2(h) (Homo sapiens, UniProt Q8N568)
T9 construct: purchased Eurofins (KinaseProfiler)
Method in brief: as §1

[10] = molecular target: T10, DCAMKL3(h) (Homo sapiens, UniProt Q9C098)
T10 construct: purchased Eurofins (KinaseProfiler)
Method in brief: as §1

[11] = molecular target: T11, EphB3(h) (Homo sapiens, UniProt P54753)
T11 construct: purchased Eurofins (KinaseProfiler)
Method in brief: as §1

[12] = molecular target: T12, Flt1(h) (Homo sapiens, UniProt P17948)
T12 construct: purchased Eurofins (KinaseProfiler)
T12 sequence (P17948 27-1338): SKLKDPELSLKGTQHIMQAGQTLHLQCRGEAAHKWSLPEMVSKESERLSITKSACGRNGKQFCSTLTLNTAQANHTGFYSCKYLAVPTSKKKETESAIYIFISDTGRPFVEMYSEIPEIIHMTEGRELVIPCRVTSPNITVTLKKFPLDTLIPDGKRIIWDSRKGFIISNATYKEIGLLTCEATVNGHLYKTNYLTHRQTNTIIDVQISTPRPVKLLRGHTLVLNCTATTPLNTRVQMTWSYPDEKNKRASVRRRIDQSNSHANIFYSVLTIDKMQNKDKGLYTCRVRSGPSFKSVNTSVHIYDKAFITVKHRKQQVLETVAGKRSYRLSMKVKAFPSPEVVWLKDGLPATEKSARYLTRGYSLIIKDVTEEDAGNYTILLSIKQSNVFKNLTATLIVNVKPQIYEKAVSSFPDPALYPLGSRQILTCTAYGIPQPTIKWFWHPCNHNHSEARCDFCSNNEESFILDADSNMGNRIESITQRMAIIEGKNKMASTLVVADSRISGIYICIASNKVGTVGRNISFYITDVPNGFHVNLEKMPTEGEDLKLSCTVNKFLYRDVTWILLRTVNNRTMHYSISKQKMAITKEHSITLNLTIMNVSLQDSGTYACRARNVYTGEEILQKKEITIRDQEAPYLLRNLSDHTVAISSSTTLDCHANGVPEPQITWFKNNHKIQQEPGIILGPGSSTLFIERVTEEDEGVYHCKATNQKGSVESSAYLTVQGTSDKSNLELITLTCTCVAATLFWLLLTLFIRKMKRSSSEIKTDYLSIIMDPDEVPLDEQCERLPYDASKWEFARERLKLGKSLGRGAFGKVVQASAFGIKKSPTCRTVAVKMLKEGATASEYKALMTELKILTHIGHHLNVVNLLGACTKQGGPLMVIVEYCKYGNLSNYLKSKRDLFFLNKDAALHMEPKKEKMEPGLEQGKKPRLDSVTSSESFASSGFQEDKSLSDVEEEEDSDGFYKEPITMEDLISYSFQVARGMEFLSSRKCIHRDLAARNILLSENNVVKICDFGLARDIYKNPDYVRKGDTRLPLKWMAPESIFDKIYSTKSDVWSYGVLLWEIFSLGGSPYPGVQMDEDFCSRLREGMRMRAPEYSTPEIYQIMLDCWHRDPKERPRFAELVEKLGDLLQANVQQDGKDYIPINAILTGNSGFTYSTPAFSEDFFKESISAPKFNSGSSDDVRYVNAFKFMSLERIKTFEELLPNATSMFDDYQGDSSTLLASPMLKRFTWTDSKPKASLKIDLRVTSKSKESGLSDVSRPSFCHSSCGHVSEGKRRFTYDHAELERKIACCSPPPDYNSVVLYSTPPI
Method in brief: as §1

[13] = molecular target: T13, Hck(h) (Homo sapiens, UniProt P08631)
T13 construct: purchased Eurofins (KinaseProfiler)
Method in brief: as §1

[14] = molecular target: T14, IRE1(h) (Homo sapiens, UniProt O75460)
T14 construct: purchased Eurofins (KinaseProfiler)
Method in brief: as §1

[15] = molecular target: T15, JAK2(h) (Homo sapiens, UniProt O60674)
T15 construct: purchased Eurofins (KinaseProfiler)
T15 sequence (O60674 whole entry): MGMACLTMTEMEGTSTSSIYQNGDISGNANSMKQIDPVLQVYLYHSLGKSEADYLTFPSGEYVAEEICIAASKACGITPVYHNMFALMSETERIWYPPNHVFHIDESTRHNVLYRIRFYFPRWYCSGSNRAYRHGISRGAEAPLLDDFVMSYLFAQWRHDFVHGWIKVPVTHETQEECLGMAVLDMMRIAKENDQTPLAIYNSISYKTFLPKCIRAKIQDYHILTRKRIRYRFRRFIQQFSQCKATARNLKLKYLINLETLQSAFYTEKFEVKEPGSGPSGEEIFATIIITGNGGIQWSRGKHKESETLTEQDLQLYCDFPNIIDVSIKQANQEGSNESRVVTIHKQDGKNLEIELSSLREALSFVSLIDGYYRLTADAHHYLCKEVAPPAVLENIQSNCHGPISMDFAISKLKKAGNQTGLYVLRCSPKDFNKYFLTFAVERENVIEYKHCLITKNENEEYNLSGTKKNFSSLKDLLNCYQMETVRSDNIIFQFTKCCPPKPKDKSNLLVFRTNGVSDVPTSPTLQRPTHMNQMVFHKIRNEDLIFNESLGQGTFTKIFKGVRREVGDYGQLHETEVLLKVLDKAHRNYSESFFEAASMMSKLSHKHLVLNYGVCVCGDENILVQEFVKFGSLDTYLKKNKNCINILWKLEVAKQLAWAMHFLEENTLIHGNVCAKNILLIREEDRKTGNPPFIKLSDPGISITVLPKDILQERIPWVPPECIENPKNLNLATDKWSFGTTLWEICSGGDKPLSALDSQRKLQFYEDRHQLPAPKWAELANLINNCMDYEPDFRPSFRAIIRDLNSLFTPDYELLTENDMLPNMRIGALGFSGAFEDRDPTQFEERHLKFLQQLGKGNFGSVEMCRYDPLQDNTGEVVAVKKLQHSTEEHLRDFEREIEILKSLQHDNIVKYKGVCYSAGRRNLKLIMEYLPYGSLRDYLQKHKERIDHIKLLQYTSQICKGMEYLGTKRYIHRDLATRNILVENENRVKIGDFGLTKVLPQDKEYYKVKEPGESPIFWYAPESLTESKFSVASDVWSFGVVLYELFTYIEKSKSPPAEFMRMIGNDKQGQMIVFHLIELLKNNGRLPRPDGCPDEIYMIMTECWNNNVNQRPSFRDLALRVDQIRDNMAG
Method in brief: as §1

[16] = molecular target: T16, JAK3(h) (Homo sapiens, UniProt P52333)
T16 construct: purchased Eurofins (KinaseProfiler)
Method in brief: as §1

[17] = molecular target: T17, LTK(h) (Homo sapiens, UniProt P29376)
T17 construct: purchased Eurofins (KinaseProfiler)
Method in brief: as §1

[18] = molecular target: T18, MAP4K4(h) (Homo sapiens, UniProt O95819)
T18 construct: purchased Eurofins (KinaseProfiler)
Method in brief: as §1

[19] = molecular target: T19, MAPKAP-K2(h) (Homo sapiens, UniProt P49137)
T19 construct: purchased Eurofins (KinaseProfiler)
Method in brief: as §1

[20] = molecular target: T20, MARK3(h) (Homo sapiens, UniProt P27448)
T20 construct: purchased Eurofins (KinaseProfiler)
Method in brief: as §1

[21] = molecular target: T21, MEK1(h) (Homo sapiens, UniProt Q02750)
T21 construct: purchased Eurofins (KinaseProfiler)
Method in brief: as §1

[22] = molecular target: T22, Met(Y1248D)(h) (Homo sapiens, UniProt P08581, Y1230D)
T22 construct: purchased Eurofins (KinaseProfiler)
Method in brief: as §1

[23] = molecular target: T23, NDR1(h) (Homo sapiens, UniProt Q15208)
T23 construct: purchased Eurofins (KinaseProfiler)
Method in brief: as §1

[24] = molecular target: PI3 Kinase (p110a(E542K)/p85a)(h) (Homo sapiens, UniProt P42336, E542K)
Method in brief: as §1

[25] = molecular target: T24, PKCγ(h) (Homo sapiens, UniProt P05129)
T24 construct: purchased Eurofins (KinaseProfiler)
Method in brief: as §1

[26] = molecular target: T25, PKCδ(h) (Homo sapiens, UniProt Q05655)
T25 construct: purchased Eurofins (KinaseProfiler)
Method in brief: as §1

[27] = molecular target: T26, PRKG2(h) (Homo sapiens, UniProt Q13237)
T26 construct: purchased Eurofins (KinaseProfiler)
Method in brief: as §1

[28] = molecular target: T27, PhKγ2(h) (Homo sapiens, UniProt P15735)
T27 construct: purchased Eurofins (KinaseProfiler)
Method in brief: as §1

[29] = molecular target: T28, Rsk1(r) (Rattus norvegicus, UniProt Q63531)
T28 construct: purchased Eurofins (KinaseProfiler)
Method in brief: as §1

[30] = molecular target: T29, SGK3(h) (Homo sapiens, UniProt Q96BR1)
T29 construct: purchased Eurofins (KinaseProfiler)
Method in brief: as §1

[31] = molecular target: T30, TAF1L(h) (Homo sapiens, UniProt Q8IZX4)
T30 construct: purchased Eurofins (KinaseProfiler)
Method in brief: as §1

[32] = molecular target: T31, TGFBR1(h) (Homo sapiens, UniProt P36897)
T31 construct: purchased Eurofins (KinaseProfiler)
Method in brief: as §1

[33] = molecular target: T32, TTBK2(h) (Homo sapiens, UniProt Q6IQ55)
T32 construct: purchased Eurofins (KinaseProfiler)
Method in brief: as §1

[34] = molecular target: T33, Tie2(Y897S)(h) (Homo sapiens, UniProt Q02763, Y897S)
T33 construct: purchased Eurofins (KinaseProfiler)
Method in brief: as §1

[35] = molecular target: T34, TrkA(h) (Homo sapiens, UniProt P04629)
T34 construct: purchased Eurofins (KinaseProfiler)
Method in brief: as §1

[36] = molecular target: T35, ULK1(h) (Homo sapiens, UniProt O75385)
T35 construct: purchased Eurofins (KinaseProfiler)
Method in brief: as §1

[37] = molecular target: T36, WNK3(h) (Homo sapiens, UniProt Q9BYP7)
T36 construct: purchased Eurofins (KinaseProfiler)
Method in brief: as §1

[38] = molecular target: T37, mTOR/FKBP12(h) (Homo sapiens, UniProt P42345)
T37 construct: purchased Eurofins (KinaseProfiler)
T37 sequence (P42345 1362-2549 limits assumed): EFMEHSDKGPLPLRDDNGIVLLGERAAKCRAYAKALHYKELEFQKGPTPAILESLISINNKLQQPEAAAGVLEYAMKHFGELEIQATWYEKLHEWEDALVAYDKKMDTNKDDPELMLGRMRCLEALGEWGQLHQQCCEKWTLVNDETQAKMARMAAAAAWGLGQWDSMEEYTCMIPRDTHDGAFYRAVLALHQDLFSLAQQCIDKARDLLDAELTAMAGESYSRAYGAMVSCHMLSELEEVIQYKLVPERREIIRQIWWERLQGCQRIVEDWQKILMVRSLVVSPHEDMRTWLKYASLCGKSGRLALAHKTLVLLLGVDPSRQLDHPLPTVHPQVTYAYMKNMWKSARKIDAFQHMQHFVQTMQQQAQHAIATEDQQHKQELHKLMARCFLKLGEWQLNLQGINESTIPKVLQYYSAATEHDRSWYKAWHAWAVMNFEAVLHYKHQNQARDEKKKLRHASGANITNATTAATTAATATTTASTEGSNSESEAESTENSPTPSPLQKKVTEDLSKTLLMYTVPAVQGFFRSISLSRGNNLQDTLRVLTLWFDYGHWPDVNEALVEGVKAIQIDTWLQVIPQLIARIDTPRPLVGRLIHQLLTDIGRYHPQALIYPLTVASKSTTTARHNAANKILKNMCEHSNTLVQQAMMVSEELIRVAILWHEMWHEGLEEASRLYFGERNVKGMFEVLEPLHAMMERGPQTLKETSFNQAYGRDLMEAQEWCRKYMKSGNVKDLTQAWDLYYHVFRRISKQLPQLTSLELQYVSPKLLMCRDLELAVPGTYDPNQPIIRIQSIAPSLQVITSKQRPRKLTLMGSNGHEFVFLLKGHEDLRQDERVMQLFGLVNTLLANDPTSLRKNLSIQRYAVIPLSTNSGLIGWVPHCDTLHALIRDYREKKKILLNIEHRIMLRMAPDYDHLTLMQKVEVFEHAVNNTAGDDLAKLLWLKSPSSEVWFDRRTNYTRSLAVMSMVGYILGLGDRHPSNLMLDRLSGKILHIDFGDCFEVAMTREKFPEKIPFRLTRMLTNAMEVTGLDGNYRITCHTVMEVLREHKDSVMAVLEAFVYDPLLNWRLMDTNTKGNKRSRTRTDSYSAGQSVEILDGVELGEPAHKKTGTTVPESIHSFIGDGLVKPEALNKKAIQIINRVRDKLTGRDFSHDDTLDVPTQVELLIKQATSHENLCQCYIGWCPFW
Method in brief: as §1

Cc1cc(/C=C/C#N)cc(C)c1Nc1ccnc(Nc2ccc(C#N)cc2)n1 [rilpivirine, (E)-4-((4-((4-(2-cyanoethenyl)-2,6-dimethylphenyl)amino)pyrimidin-2-yl)amino)benzonitrile]
remaining activity at 1 µM [1]: 80%
remaining activity at 1 µM [2]: 111%
remaining activity at 1 µM [3]: 93%
remaining activity at 1 µM [4]: 84%
remaining activity at 1 µM [5]: 100%
remaining activity at 1 µM [6]: 101%
remaining activity at 1 µM [7]: 93%
remaining activity at 1 µM [8]: 109%
remaining activity at 1 µM [9]: 122%
remaining activity at 1 µM [10]: 95%
remaining activity at 1 µM [11]: 88%
remaining activity at 1 µM [12]: 100%
remaining activity at 1 µM [13]: 50%
remaining activity at 1 µM [14]: 100%
remaining activity at 1 µM [15]: 72%
remaining activity at 1 µM [16]: 68%
remaining activity at 1 µM [17]: 78%
remaining activity at 1 µM [18]: 79%
remaining activity at 1 µM [19]: 100%
remaining activity at 1 µM [20]: 87%
remaining activity at 1 µM [21]: 101%
remaining activity at 1 µM [22]: 100%
remaining activity at 1 µM [23]: 89%
remaining activity at 1 µM [24]: 97%
remaining activity at 1 µM [25]: 103%
remaining activity at 1 µM [26]: 72%
remaining activity at 1 µM [27]: 92%
remaining activity at 1 µM [28]: 83%
remaining activity at 1 µM [29]: 90%
remaining activity at 1 µM [30]: 99%
remaining activity at 1 µM [31]: 55%
remaining activity at 1 µM [32]: 103%
remaining activity at 1 µM [33]: 88%
remaining activity at 1 µM [34]: 96%
remaining activity at 1 µM [35]: 101%
remaining activity at 1 µM [36]: 85%
remaining activity at 1 µM [37]: 83%
remaining activity at 1 µM [38]: 100%
